Test results taken from US20090325270A1, “USE OF 2-HYDROXY-5-OXOPROLINE IN CONJUNCTION WITH ALGAE” (priority 2008, published 2009).

Tested on: pale-green mutant Nannochloropsis
Experiment: Growth of algae cultures treated with 2-hydroxy-5-oxoproline (Example One, FIG. 3)
Assay type: cell-based
Source text: At step 130, the pale-green mutant Nannochloropsis may be cultivated in an aqueous environment having an effective amount of 2-hydroxy-5-oxoproline. The effective amount of 2-hydroxy-5-oxoproline may increase the growth rate of the pale-green mutant Nannochloropsis.
1. Light intensity was 600 micro-Einsteins.
2. Temperature was held constant at 25 C.
3. Cultures were inoculated to the same extent (as determined by optical density at […], O.D. 750).
4. The bicarb controls were used because the AB1 chemical, which is the 2-hydroxy-5-oxoproline compound, was dissolved in a bicarbonate buffer. This control was to make sure that differences in growth were not due to the presence of bicarbonate. The bicarb controls contain the same concentration of bicarbonate as the AB1 flasks.
5. The cultures were grown on urea as the nitrogen-source.
The bicarb controls were inoculated with 10 mls of 1.3 M bicarbonate solution (pH 9.5). The AB-1 treated cultures had approximately 0.1 g of 2-hydroxy-5-oxoproline added with the algal inoculum. No treat 2 had approximately 50% more cells inoculated as no treat 1, bicarb 1 and 2 and the AB-1 cultures. […] The difference in slope between the AB-1 cultures and the no-treat 1 and bicarb controls was approximately 50%-60%. Therefore, by feeding 2-hydroxy-5-oxoproline to pale-green mutant Nannochloropsis, a greater growth rate could be achieved, which would allow high cell density cultures to be produced quicker, so the advantages of the pale-green phenotype over the wild-type become apparent.

O=C1CC[C@@](O)(C(=O)O)N1 [AB-1, 2-hydroxy-5-oxoproline]
difference in slope (growth) between the AB-1 cultures and the no-treat 1 and bicarb controls (approximately 0.1 g 2-hydroxy-5-oxoproline added with inoculum to 800 mls media, approximately 300 hours, constant illumination 600 micro-Einsteins, 25 C, urea as nitrogen-source): 50%-60%
growth compared with no treat 2 (approximately 50% more cells inoculated) (approximately 0.1 g 2-hydroxy-5-oxoproline in 800 mls media, approximately 300 hours): grew as if they had been inoculated with more cells than had actually been added
faster growth than culture without 2-hydroxy-5-oxoproline (as measured by absorbance at 750 nm, effective amount of 2-hydroxy-5-oxoproline): fifty to sixty
